Experimental data: US8785374B2, “Inhibitors of mammalian tight junction opening” (Alba Therapeutics Corporation, priority 2007, dated 2014)
Non-standard residues stand in square brackets, D forms with d. No end group written: not given here. pGlu = O=C1CC[C@@H](C(=O)O)N1; Gip = not defined here

Tests used:
[1] = test system: CaCo2 monolayers (tight junctions); assay: Inhibition of agonist-induced Lucifer Yellow flux through CaCo2 monolayers; conditions: for Reduced LY Permeability: inhibition of the increase in Lucifer Yellow permeability induced by SEQ ID NO:70 (FCIGRL), CaCo2 monolayers
Description: (§1) Measurement of the Inhibition of the Decrease in Trans Epithelial Electric Resistance (TEER) and Epithelial Flux of a Fluorescent Marker Lucifer Yellow
(§2) Antagonists of tight junctions can be identified by their ability to prevent or decrease the enhancement of the flux of compounds (e.g. Lucifer Yellow) through the monolayer induced by agonists of tight junctions (e.g., SEQ ID NO: 70). Antagonists of tight junctions can also be identified by their ability to prevent the decrease in TEER induced by agonists of tight junctions (e.g., SEQ ID NO: 70).
(§3) Tight junction antagonists can be identified using the following method:
(§4) Prepare Modified Hank's Balanced Salt Solution (MHBSS) by obtaining IL bottle of HBSS removing 10 ml of HBSS and replacing it with 10 ml HEPES buffer pH 7.0. Adjust pH to 7.4±0.1 using concentrated NaOH (10N).
(§5) Remove Caco-2 cells from incubator, grown on 12-well, […], polycarbonate Transwell® filters (Corning) and record passage number, date cells seeded and age in days.
(§6) Aspirate cell culture medium from both the apical (AP) and basolateral (BL) compartments, replacing with 0.5 ml and 1.5 ml of MHBSS, respectively. Incubate cells at 37° C. for 30 minutes.
(§7) Prepare a stock solution of the Antagonist Pretreatment Solution by dissolving the appropriate amount of antagonist in MHBSS. Vortex or sonicate the solution until it is clear then adjust pH to 7.4±0.1 using 1N NaOH. Preincubate each filter for 30 min with these solutions at 37° C. and 50 RPM.
(§8) Prepare stock solutions of Antagonist Treatment Solution by dissolving appropriate amounts of antagonist and agonist (for example, a peptide agonist such as a peptide having the sequence FCIGRL (SEQ ID NO: 70)) in 7.5 mM Lucifer Yellow solution in MHBSS. Vortex or sonicate the solution until it is clear then adjust pH to 7.4±0.1 using 1N NaOH.
(§9) Aspirate Antagonist Pretreatment Solution from the apical compartment of each filter (n=3 per condition) and replace with 0.5 ml of control and test solutions.
(§10) Place all plates into incubator set at 37° C. (±0.2), 50 RPM (±5) for a total of 180 minutes.
At t=60, 120 and 180 minutes remove 100 μl from each basolateral compartment and place it in a 96-well plate for Lucifer Yellow analysis, replace with 100 μl of HBSS.
Make a Lucifer Yellow standard curve with the following dilutions (7500 μM, 3750 μM, 750 μM, 375 μM, 75 μM, 37.5 μM, 7.5 μM, 3.75 μM, 0.75 μM) and pipette 100 μL of each into a 96-well plate except for the first three standards mentioned above which require a 1:10 dilution prior to transferring to the 96-well plate.
At t=0 make 1:10 dilutions of each starting Antagonist Treatment Solution mentioned above and pipette 100 μL of each into a 96-well plate.
At t=180 make 1:10 dilutions of Antagonist Treatment Solution from the apical compartment of each filter and pipette 100 μL of each into the 96-well plate.
Analyze each 96-well plate in a Tecan Spectra Fluor Plus using Magellan at 485 and 535 nm.
(§11) Cells: Caco-2 cells passage 40-60 grown on Transwell® plates for 21-28 days
(§12) SEQ ID NO: 70 is a 6-mer peptide tight junction agonist having the sequence FCIGRL. See US patent publication US 2005/0059593 A1. In the following tables + indicates attenuation of the effects of the tight junction agonist were observed and − indicates no attenuation of the effects of the tight junction agonist were observed.

[2] = test system: CaCo2 monolayers (tight junctions); assay: Inhibition of agonist-induced decrease in trans epithelial electric resistance (TEER) of CaCo2 monolayers; conditions: for Prevented TEER Reduction: inhibition of the reduction in TEER induced by SEQ ID NO:70 (FCIGRL), CaCo2 monolayers
Description: as §1, §2, §3, §4, §5, §6
Using the MilliCell®-ERS instrument (Millipore), measure and record the transepithelial electrical resistance (TEER) across each filter and record.
as §7, §8, §9, §10
At t=30, 60, 120 and 180 minutes, measure and record the transepithelial electrical resistance (TEER) across each filter using the MilliCell-ERS instrument.
as §11, §12

[3] = agonist alone, compared to vehicle alone

Substance | Reduced LY Permeability [1] | Prevented TEER Reduction [2] | Enhancement of Lucifer Yellow permeability through CaCo2 monolayers [1, 3] | Decrease of TEER in CaCo2 monolayers [2, 3]
Glp-Pro-Glu ([pGlu]-Pro-Glu) [SEQ ID NO: 65] | − | − |  | 
Gln-Pro-Gly (QPG; Tight junction antagonist) [SEQ ID NO: 6] | + | + |  | 
Trp-Pro-Gly (WPG; Tight junction antagonist) [SEQ ID NO: 32] | + | + |  | 
Glp-Pro-Lys ([pGlu]-Pro-Lys) [SEQ ID NO: 64] | − | − |  | 
Glp-Met-Gly ([pGlu]-Met-Gly) [SEQ ID NO: 51] | − | − |  | 
Glp-Pro-Tyr ([pGlu]-Pro-Tyr) [SEQ ID NO: 69] | − | + |  | 
Phe-Pro-Gly (FPG; Tight junction antagonist) [SEQ ID NO: 21] | + | + |  | 
Val-Gln-Pro-Gly (VQPG; Tight junction antagonist) [SEQ ID NO: 5] | + | + |  | 
Glu-Pro-Gly (EPG; Tight junction antagonist) [SEQ ID NO: 23] | + | + |  | 
Gip-Pro-Ile ([Gip]-Pro-Ile; reading uncertain; also: printed as Gip-Pro-Ile) [SEQ ID NO: 67] | − | + |  | 
Glp-Pro-Gln ([pGlu]-Pro-Gln) [SEQ ID NO: 53] | − | − |  | 
Glp-Val-Gly ([pGlu]-Val-Gly) [SEQ ID NO: 36] | − | − |  | 
Pro-Pro-Gly (PPG; Tight junction antagonist) [SEQ ID NO: 33] | − | − |  | 
Glp-Phe-Gly ([pGlu]-Phe-Gly) [SEQ ID NO: 40] | − | − |  | 
Glp-Pro-Gly ([pGlu]-Pro-Gly) [SEQ ID NO: 35] | + | + |  | 
Asn-Pro-Gly (NPG; Tight junction antagonist) [SEQ ID NO: 27] | + | + |  | 
(d)Gln-(d)Pro-Gly ([dQ]-[dP]-Gly) [SEQ ID NO: 12] | − | − |  | 
Tyr-Pro-Gly (YPG; Tight junction antagonist) [SEQ ID NO: 29] | + | + |  | 
Glp-Gly-Gly ([pGlu]-Gly-Gly) [SEQ ID NO: 48] | − | − |  | 
Glp-Pro-Val ([pGlu]-Pro-Val) [SEQ ID NO: 63] | − | − |  | 
Gly-Pro-Gln (GPQ; Tight junction antagonist) [SEQ ID NO: 13] | + | + |  | 
Gly-(d)Pro-(d)Gln (Gly-[dP]-[dQ]) [SEQ ID NO: 16] | − | − |  | 

Substance | Reduced LY Permeability [1] | Prevented TEER Reduction [2] | Enhancement of Lucifer Yellow permeability through CaCo2 monolayers [1, 3] | Decrease of TEER in CaCo2 monolayers [2, 3]
FCIGRL [FCIGRL, reference compound] |  |  | 51 fold | 16 fold
Glp-Gln-Gly ([pGlu]-Gln-Gly) [SEQ ID NO: 37] | − | − |  | 
Glp-Tyr-Gly ([pGlu]-Tyr-Gly) [SEQ ID NO: 44] | − | − |  | 
Glp-Ile-Gly ([pGlu]-Ile-Gly) [SEQ ID NO: 43] | − | − |  | 
Arg-Pro-Gly (RPG; Tight junction antagonist) [SEQ ID NO: 20] | + | + |  | 
Met-Pro-Gly (MPG; Tight junction antagonist) [SEQ ID NO: 26] | + | + |  | 
Val-Pro-Gly (VPG; Tight junction antagonist) [SEQ ID NO: 34] | + | − |  | 
Glp-Asp-Gly ([pGlu]-Asp-Gly) [SEQ ID NO: 50] | − | − |  | 
Glp-Pro-Arg ([pGlu]-Pro-Arg) [SEQ ID NO: 62] | − | − |  | 
Glp-Ser-Gly ([pGlu]-Ser-Gly) [SEQ ID NO: 38] | − | − |  | 
Gly-Pro-(d)Gln (Gly-Pro-[dQ]) [SEQ ID NO: 15] | − | − |  | 
Lys-Pro-Gly (KPG; Tight junction antagonist) [SEQ ID NO: 24] | + | + |  | 
Glp-Pro-Asp ([pGlu]-Pro-Asp) [SEQ ID NO: 59] | − | − |  | 
Asp-Pro-Gly (DPG; Tight junction antagonist) [SEQ ID NO: 19] | − | − |  | 
Glp-His-Gly ([pGlu]-His-Gly) [SEQ ID NO: 45] | − | − |  | 
GGVLVQPG [SEQ ID NO: 1, reference compound] | + | + |  | 
Glp-Pro-Phe ([pGlu]-Pro-Phe) [SEQ ID NO: 66] | − | − |  | 
(d)Gln-Pro-Gly ([dQ]-Pro-Gly) [SEQ ID NO: 10] | + | + |  | 
Leu-Pro-Gly (LPG; Tight junction antagonist) [SEQ ID NO: 25] | + | + |  | 
Leu-Val-Gln-Pro-Gly (LVQPG; Tight junction antagonist) [SEQ ID NO: 4] | + | + |  | 
Glp-Pro-Trp ([pGlu]-Pro-Trp) [SEQ ID NO: 58] | − | − |  | 
GVLVQPG [SEQ ID NO: 2] | − | − |  | 
